Our source for the IC50 values is ChEMBL document CHEMBL1136628, “Acylcyclohexanedione derivatives as potential in vivo sequential inhibitors of 4-hydroxyphenylpyruvate dioxygenase and GA(20) 3beta-hydroxylase” (Bioorg Med Chem Lett, 2003).

In general, IC50 refers to the point on the concentration scale where inhibition reaches its midpoint. A low value points to greater potency in that assay.

In the assay the target is 4-hydroxyphenylpyruvate dioxygenase (Sus scrofa, UniProt Q02110). As to the kind of experiment: In vitro inhibitory concentration required against 4-hydroxyphenylpyruvate dioxygenase (4-HPPD) taken from pig liver.
4-hydroxyphenylpyruvate dioxygenase, sequence (Q02110 whole entry): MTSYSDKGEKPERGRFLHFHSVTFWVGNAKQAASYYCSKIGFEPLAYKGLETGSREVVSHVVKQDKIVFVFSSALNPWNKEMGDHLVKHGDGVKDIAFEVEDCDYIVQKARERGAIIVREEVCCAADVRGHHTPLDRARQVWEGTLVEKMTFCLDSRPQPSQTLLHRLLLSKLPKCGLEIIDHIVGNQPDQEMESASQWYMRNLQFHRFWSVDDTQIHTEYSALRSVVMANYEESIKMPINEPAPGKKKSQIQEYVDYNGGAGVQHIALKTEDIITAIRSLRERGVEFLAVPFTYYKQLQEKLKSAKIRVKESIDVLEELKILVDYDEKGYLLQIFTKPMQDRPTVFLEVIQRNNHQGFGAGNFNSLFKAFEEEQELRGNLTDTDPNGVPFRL

Consider `CCOC(=O)C1CC(=O)C(C(=O)C2CC2)=C(NC(=O)C2CC2)C1` (stereo unspecified), for which the IC50 was found to be 10 µM.
